From publication PMC6272306, “LC-MS/MS Determination and Pharmacokinetic Study of Pedunculoside in Rat Plasma after Oral Administration of Pedunculoside and Ilex rotunda Extract” (Molecules, 2015)
Read-outs that look alike come from different tables or passages of the source.

Assays:
[1] = Stability of PDC in rat plasma QC samples under various storage conditions; assay type: in vitro ADME; details: n = 6
Experimental: The results were compared with those obtained with freshly prepared QC samples. It could be seen from Table 3 that the results are well within the acceptance limits. Stability of PDC in plasma was tested by the analysis of six replicates of QC samples […] exposed to various storage conditions. To assess the short-term stability study, QC samples were kept at 25 °C for at least 4 h and samples were processed at different time points and were determined and compared with the freshly prepared QC samples. For the long-term stability, QC samples were determined after storage of the plasma samples at −20 °C for 2 months. For freeze-thaw stability, QC samples were subjected to three freeze/thaw cycles (room temperature to −20 °C). For post-preparation stability, the processed QC samples stored in the autosampler trials for 12 h at 4 °C, were analyzed and compared with the freshly prepared QC samples.

[2] = test system: hyperlipidemic albino rats; design: method as in doi:10.1076/phbi.37.1.37.6314; details: cited from earlier work
[3] = Pharmacokinetic study of PDC in rat plasma after oral administration of pure PDC or IRE (LC-MS/MS); assay type: in vivo, Sprague-Dawley rats; details: male, Sprague-Dawley, PDC in rat plasma, n = 6, mean ± SD; for CL/F: read-out: CLz/F (converted); for MRT last: read-out: MRT0–t; for MRT inf: read-out: MRT0–∞; for Vd/F: read-out: Vz/F; for half-life: read-out: t1/2z (converted)
Experimental: The analytical procedures described in Section 3.3 were performed to quantify PDC in rat plasma samples obtained from 24 male Sprague-Dawley rats. Out of these rats, 12 were orally administered with pure PDC, whereas 12 were orally administered with IRE. Establishing an intravenous dose group might provide the bioavailability of PDC, however, the present experiment aimed to compare the pharmacokinetic differences of PDC between monomer and IRE groups after oral administration. A fully validated LC-MS/MS method was developed and successfully applied to the pharmacokinetic behavior of PDC in rats after oral administration of the pure PDC and IRE, which were given at the same equivalent doses (42 and 84 mg/kg PDC). The mean plasma concentration-time profiles of PDC and the herbal extract after oral administration at different doses are illustrated in Figure 3, and the estimated pharmacokinetic parameters are presented in Table 4. A simple and rapid protein precipitation method was used for the preparation of all the plasma samples (calibration standards and QC samples, and real plasma samples post-dose). Plasma sample aliquots (75 µL) were added with IS solution (50 µL, 200 ng/mL) and methanol (500 µL) in tubes, then vortex-mixed for 1 min, and centrifuged at 14,000× g for 10 min. […] The dried residue was reconstituted in 100 µL of methanol-H2O (70:30, v/v) and centrifuged at 14,000× g for 5 min before analysis, and an aliquot of 5 µL was injected into LC-MS/MS systems for analysis. All experimental procedures and protocols were approved by the Animal Care and Use Committee of Jilin University (Changchun, China). All the rats were fasted for 12 h before the experiment, and were randomly divided into four groups (n = 6 per group). Group I and II were intragastrically administrated an oral dose of 42 and 84 mg/kg pure PDC, respectively. Group III and IV were intragastrically administrated an oral dose of 0.16 and 0.32 g/kg IRE, which was equivalent to 42 and 84 mg/kg PDC, respectively. Both pure PDC and IRE powder was suspended in 0.5% carboxymethyl cellulose sodium (CMC-Na) solution just before use. Blood samples (0.3 mL) were collected from the orbital sinus venous plexus at 0, 0.083, 0.25, 0.5, 0.75, 1, 1.5, 2, 3, 4, 6, 8, and 12 h after gavage dosing. After centrifuging at 5000× g for 10 min, the plasma samples were obtained and frozen at −20 °C until analysis. The pharmacokinetic parameters including Cmax, Tmax, t1/2z, AUC0–t, AUC0–∞, CLz/F, and Vz/F were calculated by non-compartmental method using the DAS 2.0 pharmacokinetics program (Chinese Pharmacology Society, Beijing, China). An independent-sample t-test was performed twice to evaluate the differences of pharmacokinetic parameters between the two groups.

[4] = processed rat plasma samples in autosampler, Post-preparation stability (4 °C for 12 h), nominal 0.60 ng/mL (LLOQ)
[5] = processed rat plasma samples in autosampler, Post-preparation stability (4 °C for 12 h), nominal 1.50 ng/mL (QC-low)
[6] = processed rat plasma samples in autosampler, Post-preparation stability (4 °C for 12 h), nominal 15.0 ng/mL (QC-medium)
[7] = processed rat plasma samples in autosampler, Post-preparation stability (4 °C for 12 h), nominal 180 ng/mL (QC-high)
[8] = rat plasma, Long-term stability (−20 °C for 2 months), nominal 0.60 ng/mL (LLOQ)
[9] = rat plasma, Long-term stability (−20 °C for 2 months), nominal 1.50 ng/mL (QC-low)
[10] = rat plasma, Long-term stability (−20 °C for 2 months), nominal 15.0 ng/mL (QC-medium)
[11] = rat plasma, Long-term stability (−20 °C for 2 months), nominal 180 ng/mL (QC-high)
[12] = rat plasma, Short-term (25 °C for 4 h), nominal 0.60 ng/mL (LLOQ)
[13] = rat plasma, Short-term (25 °C for 4 h), nominal 1.50 ng/mL (QC-low)
[14] = rat plasma, Short-term (25 °C for 4 h), nominal 15.0 ng/mL (QC-medium)
[15] = rat plasma, Short-term (25 °C for 4 h), nominal 180 ng/mL (QC-high)
[16] = rat plasma, Three freeze/thaw cycles (room temperature to −20 °C), nominal 0.60 ng/mL (LLOQ)
[17] = rat plasma, Three freeze/thaw cycles (room temperature to −20 °C), nominal 1.50 ng/mL (QC-low)
[18] = rat plasma, Three freeze/thaw cycles (room temperature to −20 °C), nominal 15.0 ng/mL (QC-medium)
[19] = rat plasma, Three freeze/thaw cycles (room temperature to −20 °C), nominal 180 ng/mL (QC-high)
[20] = 42 mg/kg PDC (IRE dosage equivalent to PDC dosage)
[21] = 84 mg/kg PDC (IRE dosage equivalent to PDC dosage)

SMILES: C[C@@H]1CC[C@]2(C(=O)O[C@@H]3O[C@H](CO)[C@@H](O)[C@H](O)[C@H]3O)CC[C@]3(C)C(=CC[C@@H]4[C@@]5(C)CC[C@H](O)[C@@](C)(CO)[C@@H]5CC[C@]43C)[C@@H]2[C@]1(C)O [PDC, Pedunculoside]
- Determined Conc. (Mean ± SD) [1, 4]: 0.596 ± 0.011 ng/mL
- RE [1, 4]: −0.60%
- Determined Conc. (Mean ± SD) [1, 5]: 1.65 ± 0.10 ng/mL
- RE [1, 5]: 10.04%
- Determined Conc. (Mean ± SD) [1, 6]: 13.81 ± 0.63 ng/mL
- RE [1, 6]: −7.91%
- Determined Conc. (Mean ± SD) [1, 7]: 183.17 ± 2.59 ng/mL
- RE [1, 7]: 1.76%
- Determined Conc. (Mean ± SD) [1, 8]: 0.573 ± 0.008 ng/mL
- RE [1, 8]: −4.56%
- Determined Conc. (Mean ± SD) [1, 9]: 1.52 ± 0.16 ng/mL
- RE [1, 9]: 1.11%
- Determined Conc. (Mean ± SD) [1, 10]: 15.96 ± 0.68 ng/mL
- RE [1, 10]: 6.39%
- Determined Conc. (Mean ± SD) [1, 11]: 160.70 ± 7.58 ng/mL
- RE [1, 11]: −10.72%
- Determined Conc. (Mean ± SD) [1, 12]: 0.673 ± 0.014 ng/mL
- RE [1, 12]: 12.24%
- Determined Conc. (Mean ± SD) [1, 13]: 1.44 ± 0.09 ng/mL
- RE [1, 13]: −3.77%
- Determined Conc. (Mean ± SD) [1, 14]: 14.88 ± 1.03 ng/mL
- RE [1, 14]: −0.77%
- Determined Conc. (Mean ± SD) [1, 15]: 192.71 ± 11.42 ng/mL
- RE [1, 15]: 7.06%
- Determined Conc. (Mean ± SD) [1, 16]: 0.570 ± 0.016 ng/mL
- RE [1, 16]: −5.00%
- Determined Conc. (Mean ± SD) [1, 17]: 1.38 ± 0.162 ng/mL
- RE [1, 17]: −7.82%
- Determined Conc. (Mean ± SD) [1, 18]: 16.32 ± 1.37 ng/mL
- RE [1, 18]: 8.81%
- Determined Conc. (Mean ± SD) [1, 19]: 162.85 ± 15.57 ng/mL
- RE [1, 19]: −9.53%
- hypolipidemic activity [2]: significant hypolipidemic activity
- AUC(0-inf) [3, 20]: 379 ± 84.8 ng·h/mL
- AUC(0-t) [3, 20]: 374 ± 82.9 ng·h/mL
- Cmax [3, 20]: 95.2 ± 7.93 ng/mL
- Tmax [3, 20]: 1.6 ± 0.42 h
- CL/F [3, 20]: 1930 mL/min/kg
- MRT last [3, 20]: 3.17 ± 0.45 h
- MRT inf [3, 20]: 3.33 ± 0.48 h
- Vd/F [3, 20]: 287 ± 63.5 L/kg
- half-life [3, 20]: 1.73 ± 0.11 h
- AUC(0-inf) [3, 21]: 665 ± 151 ng·h/mL
- AUC(0-t) [3, 21]: 661 ± 149 ng·h/mL
- Cmax [3, 21]: 174 ± 12.9 ng/mL
- Tmax [3, 21]: 1.8 ± 0.91 h
- CL/F [3, 21]: 2110 mL/min/kg
- MRT last [3, 21]: 3.08 ± 0.42 h
- MRT inf [3, 21]: 3.15 ± 0.44 h
- Vd/F [3, 21]: 273 ± 45.6 L/kg
- half-life [3, 21]: 1.5 ± 0.08 h
